According to EPA's ToxValDB 9.5:

Legend:
Bird = conditions: subchronic, duration: 8 week, oral, drinking water, M, Japanese quail
[1] = acute, duration: 4 hours, inhalation, M, CD, Ocular: Corneal opacity and corrosion
[2] = acute, duration: 15 hours, inhalation, F, Sprague-Dawley, Body Weight: 12% decrease weight gain on GDs 6-15
[3] = acute, duration: 1 days, dermal, M/F, CD, Dermal: Mild skin irritation
[4] = chronic, duration: 2 years, oral, F, Sprague-Dawley, Body Weight: […] lower terminal body weight
[5] = chronic, duration: 2 years, oral, M/F, Sprague-Dawley, Hepatic: Increased serum ALT and AST at ?[…] / hepatocellular hypertrophy at 15 mg/kg/day / hepatocellular necrosis at 15 mg/kg/day only …
[6] = chronic, duration: 2 years, oral, M, Sprague-Dawley, Reproductive: Vascular mineralization in the testes
[7] = developmental, duration: 15 hours, inhalation, F, Sprague-Dawley, Developmental: 10% decreased neonatal body weight on PND 1
[8] = reproduction developmental, duration: 90 days, oral, M/F, Sprague-Dawley, Body Weight: >11% reduced body weight
[9] = reproduction developmental, duration: 90 days, oral, M/F, Sprague-Dawley, Hepatic: Increased absolute and relative liver weight in P-generation (36%) and F1-generation (30%) males / hepatocellular hypertrophy and …
[10] = short-term, duration: 2 weeks, inhalation, M, CD, Body Weight: 7% lower body weight on exposure day 5
[11] = short-term, duration: 14 days, oral, M, Body Weight: 24% decrease in overall body weight gain
[12] = short-term, duration: 14 days, oral, M, CD, Body Weight: 14% lower final body weight
[13] = short-term, duration: 14 days, oral, M, CD, Body Weight: 14% reduction in final body weight
[14] = short-term, duration: 14 days, oral, M, CD, Reproductive: 2-fold increase in serum estradiol
[15] = short-term, duration: 14 days, oral, M, CD, Reproductive: 63% increase in serum estradiol
[16] = short-term, duration: 28 days, oral, M, CD, Body Weight: 10% decrease in final body weight
[17] = short-term, duration: 28 days, oral, M, CD, Hepatic: 34% decrease in serum triglyceride levels, minimal hepatocellular hypertrophy at ?[…] / minimal focal necrosis at 29 mg/kg/day
[18] = subchronic, duration: 90 days, oral, M, CD, Body Weight: 33% reduction in final mean body weight

## O=C([O-])C(F)(F)C(F)(F)C(F)(F)C(F)(F)C(F)(F)C(F)(F)C(F)(F)F.[NH4+] [Ammonium perfluorooctanoate]
Bird; PHA skin test (DTH response)
  LOEL: 2.1 mg/kg-day
  NOEL: 0.2 mg/kg-day
Bird; bacteremia (subsequent to E. coli challenge) + cellulitis (subsequent to E. coli challenge) + chemiluminescence of ROS produced by innate …
  NOEL: 2.1 mg/kg-day
Rattus norvegicus; acute, duration: 1 hours, inhalation, M/F, albino, Neurological: Excessive salivation + Ocular: Red material around the eyes / lacrimation + Respiratory: Red nasal discharge / dry rales
  LOAEL: 18600 mg/m3
Rattus norvegicus; acute, duration: 4 hours, inhalation, M, CD, Body Weight: Weight loss for 1-2 days after exposure (data not shown) + Respiratory: Pulmonary edema
  LOAEL: 380 mg/m3
Rattus norvegicus; acute, duration: 4 hours, inhalation, M, CD, Death: LC50
  LOAEL: 980 mg/m3
Rattus norvegicus; acute, duration: 4 hours, inhalation, M, CD, Gastrointestinal: Stomach irritation
  LOAEL: 380 mg/m3
Rattus norvegicus; acute, duration: 4 hours, inhalation, M, CD, Hepatic: Liver enlargement at 810 mg/m3 / no histological alterations
  NOAEL: 810 mg/m3
Rattus norvegicus; [1]
  LOAEL: 810 mg/m3
  NOAEL: 380 mg/m3
Rattus norvegicus; [2]
  LOAEL: 10 mg/m3
  NOAEL: 1 mg/m3
Rattus norvegicus; acute, duration: 15 hours, inhalation, F, Sprague-Dawley, Death: 3/12 deaths on GDs 12, 13, and 17
  LOAEL: 25 mg/m3
Rattus norvegicus; acute, duration: 15 hours, inhalation, F, Sprague-Dawley, Hepatic: 18% increase absolute liver weight at 25 mg/m3
  NOAEL: 25 mg/m3
Rattus norvegicus; acute, duration: 1 days, dermal, M/F, CD, Body Weight: 5-7% transient weight loss
  LOAEL: 3000 mg/kg-day
Rattus norvegicus; [3]
  LOAEL: 5000 mg/kg-day
  NOAEL: 3000 mg/kg-day
Rattus norvegicus; acute, duration: 1 days, dermal, M, CD, Death: 14-day LD50
  LOAEL: 7000 mg/kg-day
Rattus norvegicus; acute, duration: 1 days, oral, F, albino, Death: LD50
  LOAEL: 430 mg/kg-day
Rattus norvegicus; acute, duration: 1 days, oral, M, albino, Death: LD50
  LOAEL: 680 mg/kg-day
Rattus norvegicus; chronic, duration: 1 years, oral, M, CD, Body Weight: >10% reduced weight gain + Reproductive: Significant increase in serum estradiol at 1, 3, 6, 9, and 12 months (~100-180%) / …
  LOAEL: 13.6 mg/kg-day
Rattus norvegicus; chronic, duration: 1 years, oral, M, CD, Hepatic: Increased relative liver weight
  NOAEL: 13.6 mg/kg-day
Rattus norvegicus; chronic, duration: 2 years, oral, F, Sprague-Dawley
  NOAEL: 15 mg/kg-day
Rattus norvegicus; [4]
  LOAEL: 15 mg/kg-day
  NOAEL: 1.5 mg/kg-day
Rattus norvegicus; chronic, duration: 2 years, oral, M/F, Sprague-Dawley
  NOAEL: 15 mg/kg-day
Rattus norvegicus; [5]
  LOAEL: 15 mg/kg-day
  NOAEL: 1.5 mg/kg-day
Rattus norvegicus; chronic, duration: 2 years, oral, M/F, Sprague-Dawley, Other Cancer: CEL: testicular Leydig cell adenomas
  LOAEL: 15 mg/kg-day
Rattus norvegicus; chronic, duration: 2 years, oral, M, CD, Body Weight: >10% reduction in weight gain most of the study + Other: Increased incidence of acinar cell + Reproductive: Increased incidence…
  LOAEL: 13.6 mg/kg-day
Rattus norvegicus; chronic, duration: 2 years, oral, M, CD, Cancer: CEL: testicular Leydig cell adenomas and pancreatic acinar cell adenomas
  LOAEL: 13.6 mg/kg-day
Rattus norvegicus; chronic, duration: 2 years, oral, M, CD, Hepatic: Increased relative liver weight
  NOAEL: 13.6 mg/kg-day
Rattus norvegicus; chronic, duration: 2 years, oral, M, Sprague-Dawley, Other Noncancer: Inflammation of the salivary gland
  LOAEL: 1.5 mg/kg-day
Rattus norvegicus; [6]
  LOAEL: 15 mg/kg-day
  NOAEL: 1.5 mg/kg-day
Rattus norvegicus; [7]
  LOAEL: 25 mg/m3
  NOAEL: 10 mg/m3
Rattus norvegicus; developmental, duration: 10 days, oral, F, Sprague-Dawley, Developmental: No alterations in fetal body weight or teratology
  NOAEL: 100 mg/kg-day
Rattus norvegicus; developmental, duration: 90 days, oral, M/F, Sprague-Dawley, Developmental: Increased number of dead pups on PNDs 6-8
  LOAEL: 30 mg/kg-day
Rattus norvegicus; developmental, duration: 90 days, oral, M/F, Sprague-Dawley, Developmental: Increased number of dead pups on PNDs 6-8 + Endocrine: Vacuolation of zona glomerulosa of adrenal gland
  NOAEL: 10 mg/kg-day
Rattus norvegicus; reproduction developmental, duration: 10 days, oral, F, Sprague-Dawley, Body Weight: 33% reduced maternal body weight gain
  LOAEL: 100 mg/kg-day
Rattus norvegicus; [8]
  LOAEL: 10 mg/kg-day
  NOAEL: 3 mg/kg-day
Rattus norvegicus; reproduction developmental, duration: 90 days, oral, M/F, Sprague-Dawley, Endocrine: Vacuolation of zona glomerulosa of adrenal gland
  LOAEL: 30 mg/kg-day
Rattus norvegicus; [9]
  LOAEL: 3 mg/kg-day
  NOAEL: 1 mg/kg-day
Rattus norvegicus; reproduction developmental, duration: 90 days, oral, M/F, Sprague-Dawley, Reproductive: No alteration in reproductive performance in P0 or F1 generation
  NOAEL: 30 mg/kg-day
Rattus norvegicus; short-term, duration: 2 weeks, dermal, M, CD
  NOAEL: 2000 mg/kg-day
Rattus norvegicus; short-term, duration: 2 weeks, dermal, M, CD, Body Weight: 14% weight loss
  LOAEL: 200 mg/kg-day
Rattus norvegicus; short-term, duration: 2 weeks, dermal, M, CD, Body Weight: 14% weight loss + Dermal: Skin irritation / acute necrotizing dermatitis
  NOAEL: 20 mg/kg-day
Rattus norvegicus; short-term, duration: 2 weeks, dermal, M, CD, Hepatic: Foci of coagulative necrosis
  LOAEL: 20 mg/kg-day
Rattus norvegicus; [10]
  LOAEL: 84 mg/m3
  NOAEL: 7.6 mg/m3
Rattus norvegicus; short-term, duration: 2 weeks, inhalation, M, CD, Hepatic: Increased absolute and relative liver weight / hepatocellular hypertrophy at 7.6 mg/m3 + Neurological: No histological alterations…
  NOAEL: 84 mg/m3
Rattus norvegicus; short-term, duration: 7 days, oral, M, Sprague-Dawley, Body Weight: 17% weight loss
  LOAEL: 50 mg/kg-day
Rattus norvegicus; short-term, duration: 7 days, oral, M, Sprague-Dawley, Hepatic: 2-fold increase in relative and absolute liver weight
  NOAEL: 50 mg/kg-day
Rattus norvegicus; short-term, duration: 7 days, oral, M, Sprague-Dawley, Hepatic: Increased liver weight, decreased serum cholesterol, triglyceride, hepatocellular hypertrophy at ?18 mg/kg/day
  NOAEL: 23 mg/kg-day
Rattus norvegicus; short-term, duration: 7 days, oral, M, Wistar, Hepatic: 66% increase in absolute liver weight
  NOAEL: 16 mg/kg-day
Rattus norvegicus; [11]
  LOAEL: 3 mg/kg-day
  NOAEL: 1 mg/kg-day
Rattus norvegicus; [12]
  LOAEL: 20 mg/kg-day
  NOAEL: 2 mg/kg-day
Rattus norvegicus; [13]
  LOAEL: 25 mg/kg-day
  NOAEL: 10 mg/kg-day
Rattus norvegicus; short-term, duration: 14 days, oral, M, CD, Hepatic: 34% increase in absolute and relative liver we
  NOAEL: 40 mg/kg-day
Rattus norvegicus; short-term, duration: 14 days, oral, M, CD, Hepatic: 46% increase in relative liver weight at ?10 mg/kg/day
  NOAEL: 50 mg/kg-day
Rattus norvegicus; [14]
  LOAEL: 2 mg/kg-day
  NOAEL: 0.2 mg/kg-day
Rattus norvegicus; [15]
  LOAEL: 10 mg/kg-day
  NOAEL: 1 mg/kg-day
Rattus norvegicus; short-term, duration: 14 days, oral, M, CD, Reproductive: 184% increase in serum estradiol
  LOAEL: 25 mg/kg-day
Rattus norvegicus; short-term, duration: 14 days, oral, M, Hepatic: Decreased serum cholesterol levels at ?0.3 mg/kg/day
  NOAEL: 30 mg/kg-day
Rattus norvegicus; short-term, duration: 14 days, oral, M, Sprague-Dawley, Hepatic: 2-fold increased mean relative liver weight at 50 mg/kg/day + Immunotoxicological: No alterations in spleen weight or splenocyte …
  NOAEL: 50 mg/kg-day
Rattus norvegicus; short-term, duration: 28 days, oral, F, albino, Death: before end of 1st week of study
  LOAEL: 1130 mg/kg-day
Rattus norvegicus; short-term, duration: 28 days, oral, M, CD
  NOAEL: 29 mg/kg-day
Rattus norvegicus; short-term, duration: 28 days, oral, M, CD, Body Weight: 30 mg/kg/day: 11% reduction in final body weight / 100 mg/kg/day: 33% reduction in final body weight
  NOAEL: 10 mg/kg-day
Rattus norvegicus; [16]
  LOAEL: 9.6 mg/kg-day
  NOAEL: 0.96 mg/kg-day
Rattus norvegicus; [17]
  LOAEL: 29 mg/kg-day
  NOAEL: 0.29 mg/kg-day
Rattus norvegicus; short-term, duration: 28 days, oral, M, CD, Hepatic: Hepatocyte hypertrophy
  NOAEL: 3 mg/kg-day
Rattus norvegicus; short-term, duration: 28 days, oral, M, Sprague-Dawley, Hepatic: Increased liver weight (43% on day 29), decreased serum cholesterol (39% on day 29) and triglyceride (73% on day 29), …
  LOAEL: 18 mg/kg-day
Rattus norvegicus; short-term, duration: 28 days, oral, M, albino, Death: 5/5 males and 5/5 females died
  LOAEL: 1000 mg/kg-day
Rattus norvegicus; subchronic, duration: 13 weeks, oral, M, CD, Hepatic: Minimal to moderate hepatocellular hypertrophy at ?0.64 mg/kg/day + Neurological: No histological alterations + Reproductive: No …
  NOAEL: 6.5 mg/kg-day
Rattus norvegicus; subchronic, duration: 90 days, oral, F, CD
  NOAEL: 100 mg/kg-day
Rattus norvegicus; subchronic, duration: 90 days, oral, F, CD, Neurological: No histological alterations
  NOAEL: 110 mg/kg-day
Rattus norvegicus; [18]
  LOAEL: 100 mg/kg-day
  NOAEL: 30 mg/kg-day
Rattus norvegicus; subchronic, duration: 90 days, oral, M, CD, Hepatic: Hepatocyte hypertrophy / 50% increase in absolute liver weight + Reproductive: No histological alterations
  NOAEL: 100 mg/kg-day
